# Experimental data from patent US20170143674A1, “Use of Glutaryl Histamine for the Treatment of Respiratory Tract Diseases” (LTD "VALENTA-INTELLEKT", priority 2011, published 2017).
# Where two headings read alike, the source gives them in different places. Marks after values point to notes of the source that are not given here.
# Legend:
# [1] = system: Escherichia coli (mouse-adapted strain 4300); assay: animal or person; assay type: in vivo, mice
# Experimental: Escherichia coli (mouse-adaptedstrain 4300, Institute collection) was used as an infectious agent. Mice were infected intravenously.
# Firstly, there were determined a lethal dose (LD100) of Escherichia coli to be intravenously administered to this line of mice with a certain weight. Fatal cases among mice were registered every day for ten days. […] For this purpose, mice were housed into cages (10 animals per cage) and infected with a lethal dose of Escherichia coli. One hour after each mouse was administered orally levofloxacin in doses of 1, 2, 4, 6, 8, 10, and 12 mg/kg. A group of mice infected with a lethal dose of Escherichia coli without the treatment was considered as a control group. Fatal cases among mice were registered every day for ten days.
# The next step of the experiment was to study an effect of combined administration of glutaryl histamine and levofloxacin on a model of E. coli sepsis in mice.
# (§1) In the experiment, mice were housed in following groups (10 animals per cage):
# Glutaryl histamine was administered orally in the corresponding doses to mice of groups 3, 4, 5, 6, 7, and 8 for 5 days. Five day after, all groups of mice were intravenously administered 0.2 ml of Escherichia coli in the lethal dose. […] After infection and administration of levofloxacin, glutaryl histamine was administered to mice of groups 3-8 for additional 5 days. During the experiment, the animals were observed every day, and fatal cases were registered (see Table 14).
# [2] = system: Staphylococcus aureus (mouse-adapted MRSA strain 5); assay: animal or person; assay type: in vivo, mice
# Experimental: Tested medicament was glutaryl histamine in doses of 15, 30 and 45 mg/kg. Solutions of the tested medicament for oral administration were prepared ex tempore in stream water. Ampicillin (in intravenous administration) was used as a therapeutic preparation since it is the most experimentally studied antibiotic approved in clinical practice many years ago. Levofloxacin was used as a positive control (in oral administration).
# Staphylococcus aureus was used as an infectious agent (mouse-adapted MRSA strain 5, collection from GU NIINA im.G.F. Gauze RAMN).
# Firstly, there was determined a lethal dose (LD100) of staphylococcus when intravenously administered to this line of mice with a certain weight. Fatal cases among mice were registered every day for ten days. […] After that, there was determined the dose of ampicillin providing a survival rate of 20% of mice infected with staphylococcus MRSA taken in a lethal dose. For this purpose, mice were housed into cages by 10 animals and infected with a lethal dose of staphylococcus. One hour later, each mouse was intravenously administered ampicillin in doses of 30, 60, 90, 120, 150, and 180 mg/kg. A group of mice infected with a lethal dose of staphylococcus without the treatment was considered as a control group. Fatal cases among mice were registered every day for ten days.
# The next step of the experiment was to study an effect of combined administration of glutaryl histamine with ampicilline on a model of MRSA-induced staphylococcal sepsis in mice.
# In the experiment, the mice were housed in following groups of 10 animals per cage: […]
# [3] = system: Staphylococcus aureus (mouse-adapted strain 10); assay: animal or person; assay type: in vivo, mice
# Experimental: The tested medicament was glutaryl histamine in doses of 15, 30 and 45 mg/kg. Solutions of the tested medicament for oral administration were prepared ex tempore. Levofloxacin (in oral administration) was used as a therapeutic preparation since this substance was the most experimentally studied antibiotic approved in clinical practice many years ago.
# Staphylococcus aureus (mouse-adaptedstrain 10) was used as an infectious agent. Mice were infected intravenously.
# Firstly, there was determined a lethal dose (LD100) of staphylococcus to be intravenously administered to this line of mice having a certain weight. Fatal cases among mice were registered every day for ten days. The lethal dose was 3×10^8 CFU/mouse. […] For this purpose, mice were housed into cages (10 animals per cage) and infected with a lethal dose of staphylococcus. One hour after each mouse was administered orally levofloxacin in doses of 1, 2, 4, 6, 8, 10, and 12 mg/kg. A group of mice infected with a lethal dose of staphylococcus without the treatment was considered as a control group. Fatal cases among mice were registered every day for ten days.
# The next step of the experiment was to study an effect of combined administration of glutaryl histamine and levofloxacin on a model of staphylococcal sepsis in mice.
# as §1
# Glutaryl histamine was administered orally in the corresponding doses to the mice of groups 3, 4, 5, 6, 7, and 8 for 5 days. Five day after, all groups of mice were intravenously administered with 0.2 ml of Staphylococcus aureus in the lethal dose. […] After infection and administration of levofloxacin, glutaryl histamine was administered to mice of groups 3-8 for additional 5 days. During the experiment, the animals were observed every day, and fatal cases were registered (see Table 13).
# LPS-induced tonsillitis = LPS-induced tonsillitis model (E. coli LPS into cervical lymph node); assay type: in vivo; details: Diclofenac (11 mg/kg)
# Experimental: This example is aimed at evaluating the activity of glutaryl histamine on experimental model of tonsillitis. LPS-induced tonsillitis is one of the most adequate models for the study of the pathogenesis, pathomorphological changes and action of pharmacological medicaments on the course of this disease.
# Tonsillitis was induced under anesthesia by administration of a solution of E. coli lipopolysaccharide (LPS) (Sigma) in normal physiological solution in a dose of 20 μg/kg, by 10 μl to the right upper lymph node (Inn. Cervicales superficiales). After administration, the lymph nodes were put under superficial neck muscles and then the skin was stitched. The wound was treated with streptocide. The animal was placed into a post-operation cage.
# The tested medicament was administered once daily in a given dose strictly at the stated time for three days before the induction of tonsillitis and 10 days after. Normal saline solution was used as placebo.
# Immediately after euthanasia, the animals were subjected to necropsy, the affected and intact lymph nodes were removed and weighed.
# The lymph nodes derived from the half of animals from each group were being frozen after removal in a refrigerating chamber at −25° C. for 72 hours. Then the lymph nodes were lyophilized.
# In a half of animals from each group (7), the affected lymph nodes were subjected to histological analysis. After euthanasia, intact and affected lymph nodes were removed from each animal. […] Sections with a thickness of 4 to 6 μm were prepared from the paraffin blocks, stained with hematoxylin and eosin to reveal typical pathological processes and study required parameters using light-optical microscope Leica DM LS (magnification 200× and 400×).
# Weights of intact and affected lymph nodes were compared and the nodes also were lyophilized to evaluate an effect of the medicaments on the swelling degree and adequacy of the model of tonsillitis.
# The protein-synthetic function of the liver and a systemic effect of the medicaments on organism were evaluated in total protein (TP) analysis.
# [4] = system: acute rhinosinusitis induced by intranasal administration of formalin; assay type: in vivo, rat
# Experimental: Activity of glutaryl histamine was studied in an experimental model of acute rhinosinusitis (ARS).
# Administration of 20 μl of 7.5% formalin to the rat nasal passages leads to the development of a clinical picture similar to the symptoms of acute rhinosinusitis in a human.
# The tested medicament and reference medicaments were administered for 7 days after administration of 7.5% formalin. Normal saline solution was used as placebo. The animals were subjected to euthanasia on day 8 after induction of experimental acute rhinosinusitis by method of air embolism. During necropsy, nasal passages of all animals were sampled. The obtained material was placed into 10% neutral-buffered formalin for further histological analysis.
# The mucous and submucous membranes of both nasal passages (respiratory and olfactory regions) of the experimental animals were subjected to a morphological analysis of the specific activity of glutaryl histamine.
# After the clinical phase of the experiment, the material derived from the animals was subjected to the standard treatment to prepare histological paraffin sections with a thickness of 3 to 5 μm. The sections were stained with hematoxylin and eosin for a microscopic study. Comparison and histological analysis of changes were performed versus the group of intact rats.
# The main pathological processes inherent in experimental acute rhinosinusitis, such as vascular congestion in mucous membrane, hyperplasia and necrosis of the epithelium, the number of caliciform cells within 1 mm of the mucous membrane in the nasal septum, were evaluated by a semi-quantitative method to evaluate the degree of pathophysiological changes in histological, histochemical and morphological studies.
# The microscopic analysis of exudative disorder developed in rats with acute rhinitis was aimed at measuring the number of caliciform cells comprising acidic mucus (Table 3).
# [5] = levofloxacin 20 mg/kg, tenth day
# [6] = group 3: levofloxacin 4 mg/ml per os one time
# [7] = levofloxacin 2.65 mg/kg, tenth day
# [8] = Diclofenac 11 mg/kg, n = 10, listed as diclofenac
smiles,measurement,setting,value
"C[C@H]1COc2c(N3CCN(C)CC3)c(F)cc3c(=O)c(C(=O)O)cn1c23 [levofloxacin, reference compound]",ED50,"[1]; Escherichia coli, po, read-out: ED50 (50% effective dose)",2.97 mg/kg
same,died/survived animals,"[1]; day 1, levofloxacin 20 mg/kg",0/10
same,died/survived animals,"[1]; day 2, levofloxacin 20 mg/kg",0/10
same,died/survived animals,"[1]; day 3, levofloxacin 20 mg/kg",0/10
same,died/survived animals,"[1]; day 4, levofloxacin 20 mg/kg",1/9
same,died/survived animals,"[1]; day 5, levofloxacin 20 mg/kg",2/8
same,died/survived animals,"[1]; day 6, levofloxacin 20 mg/kg",3/7
same,died/survived animals,"[1]; day 7, levofloxacin 20 mg/kg",4/6
same,died/survived animals,"[1]; day 8, levofloxacin 20 mg/kg",5/5
same,died/survived animals,"[1]; day 9, levofloxacin 20 mg/kg",5/5
same,died/survived animals,"[1]; day 10, levofloxacin 20 mg/kg",5/5
same,Mortality rate (%),[1]; [5],50%
same,Survival rate (%),[1]; [5],50%
same,ED50,"[2]; Staphylococcus aureus, MRSA, po",4 mg/kg
same,died/survived animals,"[2]; day 1, group 3: levofloxacin 4 mg/ml per os one time",0/10
same,died/survived animals,"[2]; day 2, group 3: levofloxacin 4 mg/ml per os one time",0/10
same,died/survived animals,"[2]; day 3, group 3: levofloxacin 4 mg/ml per os one time",0/10
same,died/survived animals,"[2]; day 4, group 3: levofloxacin 4 mg/ml per os one time",1/9
same,died/survived animals,"[2]; day 5, group 3: levofloxacin 4 mg/ml per os one time",2/8
same,died/survived animals,"[2]; day 6, group 3: levofloxacin 4 mg/ml per os one time",3/7
same,died/survived animals,"[2]; day 7, group 3: levofloxacin 4 mg/ml per os one time",4/6
same,died/survived animals,"[2]; day 8, group 3: levofloxacin 4 mg/ml per os one time",5/5
same,died/survived animals,"[2]; day 9, group 3: levofloxacin 4 mg/ml per os one time",5/5
same,died/survived animals,"[2]; day 10, group 3: levofloxacin 4 mg/ml per os one time",5/5
same,Mortality rate (%),[2]; [6],50%
same,Survival rate (%),[2]; [6],50%
same,ED50,"[3]; Staphylococcus aureus, po, read-out: ED50 (50% effective dose)",2.65 mg/kg
same,died/survived animals,"[3]; day 1, levofloxacin 2.65 mg/kg",0/10
same,died/survived animals,"[3]; day 2, levofloxacin 2.65 mg/kg",0/10
same,died/survived animals,"[3]; day 3, levofloxacin 2.65 mg/kg",1/9
same,died/survived animals,"[3]; day 4, levofloxacin 2.65 mg/kg",2/8
same,died/survived animals,"[3]; day 5, levofloxacin 2.65 mg/kg",4/6
same,died/survived animals,"[3]; day 6, levofloxacin 2.65 mg/kg",4/6
same,died/survived animals,"[3]; day 7, levofloxacin 2.65 mg/kg",4/6
same,died/survived animals,"[3]; day 8, levofloxacin 2.65 mg/kg",5/5
same,died/survived animals,"[3]; day 9, levofloxacin 2.65 mg/kg",5/5
same,died/survived animals,"[3]; day 10, levofloxacin 2.65 mg/kg",5/5
same,Mortality rate (%),[3]; [7],50%
same,Survival rate (%),[3]; [7],50%
"O=C(O)Cc1ccccc1Nc1c(Cl)cccc1Cl [Diclofenac, diclofenac, reference compound]",Mortality rate (%),LPS-induced tonsillitis,29%
same,The number of died animals/initial number of animals in a group,LPS-induced tonsillitis,4/14
same,Area of germinal centers of lymphoid follicles in affected lymph nodes,LPS-induced tonsillitis; M ± m,0.074 ± 0.007* mm^2
same,Weight difference between affected and intact lymph nodes,LPS-induced tonsillitis; M ± m,16.3 ± 1.4 mg
same,Mucopurulent catarrh (number of rats),"[4]; Diclofenac 11 mg/kg, n = 10",7
same,Mucous catarrh (number of rats),"[4]; Diclofenac 11 mg/kg, n = 10",3
same,"Without changes (number of rats, mucous membrane in the nasal passages, macroscopic)","[4]; Diclofenac 11 mg/kg, n = 10",0
same,Mucopurulent catarrh (number of rats),[4]; [8],four
same,Mucous catarrh (number of rats),[4]; [8],three
same,The number of caliciform cells within 1 mm of the mucosal membrane of the nasal septum,"[4]; Diclofenac (11 mg/kg), M ± m",31.8 ± 1.9* **
